Laboratory results taken from PMC4559766 (Scientific Reports, 2015).
Several values for one entry are separate records, joined by “and”; a condition that tells them apart may be missing. Identical values can stand only once.

Tests used:
[1] = target: T1, recombinant human TNFRI (hTNFRI) (Homo sapiens, UniProt P19438); test: SPR binding affinity to hTNFR I (BIAcore 3000); conditions: SPR and ITC
T1 construct: purchased Sino Biological Inc
T1 sequence (P19438 30-211 limits assumed): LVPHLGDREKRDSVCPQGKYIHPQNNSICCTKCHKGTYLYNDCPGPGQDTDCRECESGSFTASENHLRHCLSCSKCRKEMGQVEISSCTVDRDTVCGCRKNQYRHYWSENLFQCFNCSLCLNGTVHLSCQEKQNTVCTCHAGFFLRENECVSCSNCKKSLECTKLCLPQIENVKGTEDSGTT
Source text: (§1) BIAcore kinetic evaluation Ver. 4.1 software and Microcal ORIGIN Ver. 5.0 software were respectively used to determine the dissociation constant (KD).

[2] = target: T2, recombinant human TNFRII (hTNFRII) (Homo sapiens, UniProt P20333); test: SPR binding affinity to hTNFR II (BIAcore 3000); conditions: SPR and ITC
T2 construct: purchased Sino Biological Inc
T2 sequence (P20333 23-257 limits assumed): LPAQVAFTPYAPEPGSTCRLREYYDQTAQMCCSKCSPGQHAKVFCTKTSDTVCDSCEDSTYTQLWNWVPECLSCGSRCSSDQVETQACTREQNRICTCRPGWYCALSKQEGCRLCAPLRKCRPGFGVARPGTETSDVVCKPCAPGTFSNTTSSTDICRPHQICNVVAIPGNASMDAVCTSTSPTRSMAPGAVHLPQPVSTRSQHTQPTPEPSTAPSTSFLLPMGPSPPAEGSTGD
Source text: as §1

[3] = system: Factor Xa; test: In vitro factor Xa enzyme digestion half-life; assay type: in vitro ADME; conditions: FXa 0.112 unit, 37 °C, 0-48 hours, HPLC-ESI-MS
Procedure: FXa (0.112 unit) were added into the mixture. After being thoroughly mixed, the mixture was divided into six aliquots to six PCR tubes and hydrolyzed at 37 °C in dark for 48 hours. Samples were respectively obtained at different time points (0, 12, 24, 36 and 48 hours) and each of samples was boiled for 5 minutes to quench the reaction and centrifuged.

[4] = system: HUVEC cells; test: Proliferation inhibition of HUVEC cells (Cell Counting Kit-8); assay type: cell-based, human; conditions: 20 nM, 48 hours
Procedure: (§2) Du145, Raji, K562, Eca109, HeLa, MCF-7, MDA-MB-231 cells or non-tumorigenic epithelial cells MCF10A and HUVEC cells in logarithmic growth phase were respectively seeded into 96-well plates with the number of 8000 cells per well and incubated for 24 hours. […] The cells were counted with Cell Counting Kit-8. The IC50 was calculated using SPSS 17.0-Logit.

[5] = system: human mammary non-tumorigenic epithelial cells MCF10A; test: Proliferation of non-tumorigenic epithelial cells MCF10A (Cell Counting Kit-8); assay type: cell-based; conditions: 20–900 nM, 48 hours
Procedure: as §2

[6] = target: T3, human TNFRI of ML-la cells (Homo sapiens, UniProt P19438); test: Competition receptor binding assay, [125I]TNF α displacement from TNFRI; design: unit not given beside the values
T3 construct: ML-la cells (a human myelomonoblastic leukemia cell line, 1 × 10^6 cells/well) were preincubated with either anti-p60 antibody or anti-p80 antibody; endogenous in cells; host or cells: ML-la (ML-1a) human myelomonoblastic leukemia cells
T3 sequence (P19438 30-455): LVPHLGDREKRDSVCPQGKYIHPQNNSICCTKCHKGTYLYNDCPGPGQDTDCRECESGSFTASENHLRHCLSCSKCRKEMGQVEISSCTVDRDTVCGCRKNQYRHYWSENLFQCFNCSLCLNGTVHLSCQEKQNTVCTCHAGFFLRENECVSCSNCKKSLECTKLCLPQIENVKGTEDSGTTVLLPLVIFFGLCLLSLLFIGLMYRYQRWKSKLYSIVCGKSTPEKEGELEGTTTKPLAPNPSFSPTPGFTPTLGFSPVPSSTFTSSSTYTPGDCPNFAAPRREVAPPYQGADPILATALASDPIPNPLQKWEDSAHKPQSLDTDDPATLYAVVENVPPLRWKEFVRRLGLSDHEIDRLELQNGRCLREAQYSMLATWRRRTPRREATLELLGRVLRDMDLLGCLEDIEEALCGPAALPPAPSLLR
Procedure: Free iodine was removed by gel filtration on a G-25 column equilibrated with phosphate-buffered saline containing 0.1% gelatin. […] Thereafter cells were washed three times with 150 μl of ice-cold phosphate-buffered saline containing 0.1% bovine serum albumin. Then each well was cut from the plate with a scissors, and cell-bound radioactivity was determined by an Apec-Series […] (ICN Biomedicals, Inc., Costa Mesa, CA)[51].

[7] = system: Du145 cells; test: Apoptosis of Du145 cells, Annexin V-FITC/PI double staining-flow cytometry; assay type: cell-based, human
Procedure: (§3) Du145 cells in logarithmic growth phase were seeded into 6-well plates with number of 3 × 10^5 cells per well.

[8] = system: Du145 cells; test: Cell cycle of Du145 cells, PI single staining-flow cytometry; assay type: cell-based, human; conditions: 20 nM, 48 hours
Procedure: as §3

[9] = system: Du145 transplanted tumor; test: Subcutaneous Du145 transplanted tumor in nude mice; assay type: in vivo, BALB/c-nu/nu nude mice; conditions: tail vein once a day for 4 weeks; 0.1 ml of 40 nM RMP16 or P16, estramustine 60 mg/kg; by average tumor weight versus NaCl group; n = 6
Procedure: Thirty male 4-week-old BALB/c-nu/nu nude mice (17–19 g), were divided into five groups. CK group (blank control) was the mice which were not inoculated Du145 cells, and the remaining four groups received inoculation of Du145 cells. 0.2 ml of Du145 cells suspension with the concentration of 1.5 × 10^7 cells/ml was injected subcutaneously into the right side of back of nude mice. […] The weights and volumes of tumors in different groups were measured once every four days, and tumor growth curves for each group were plotted.

[10] = system: Du145 transplanted tumor; test: Microvessel density of removed tumors (anti-CD31 immunohistochemistry, Weidner method); assay type: in vivo, BALB/c-nu/nu nude mice; conditions: tumors removed after 4 weeks of administration, anti-CD31, n = 6
Procedure: (§4) Four weeks after administration, the mice were executed, and the tumors of different groups were removed and fixed with 10% neutral formalin or 2.5% glutaraldehyde. The fixed tumor tissue slides were subjected to Hematoxylin-eosin (HE) staining, immunohistochemistry in which anti-CD31 antibody and biotin-labeled IgG were respectively used as the first and second antibody, and TEM analysis. The microvessel densitied (MVD) in different tumor tissues was calculated using the Weidner method.

[11] = system: Du145 transplanted tumor; test: TEM of removed tumors, cells with typical apoptosis characteristic; assay type: in vivo, BALB/c-nu/nu nude mice; conditions: TEM of tumors removed after 4 weeks of administration
Procedure: as §4

[12] = system: chick chorioallantoic membrane; test: Chick chorioallantoic membrane model of angiogenesis; assay type: in vivo; conditions: 72 hours at 37 °C
Procedure: Thirty fertilized chick embryos were randomly divided into five groups and incubated in the thermostatic incubator at 37 °C for six days (blunt end up). Drill a small window about 1 cm × 1 cm on the eggshell on the gas chamber side of chick embryo, meanwhile, also drill a small hole at the gas chamber, so that an artificial gas chamber was formed at the window. After removing the shell and shell membrane, the chicken chorioallantoic membrane (CAM) was exposed. […] The window was sealed with transparent tape, and chick embryos were incubated at 37 °C for 72 hours in thermostatic incubator.

[13] = Pharmacokinetics in BALB/c mice after intravenous injection
Procedure: Blood samples were collected by eye bleed from three mice at per time point prior to dosing and from 0.5 to 24 hours postdosing, and the plasma portion was analyzed by using an electrospray ionization, LC/MS/MS method described previously[48]. […] Tri (2-carboxyethyl) phosphine hydrochloride (TCEP) was used as a reducing agent to enhance peptide recovery and was added to all samples at a final concentration of 2 mM. After removing the plasma proteins through adding acetonitrile and centrifugation, the supernatant was transferred to another 96-well plate. Samples were analyzed by LC/MS/MS. Pharmacokinetic parameters were fitted to a two-compartment elimination model, and drug exposure (AUC), elimination half-life (t1⁄2), volume of distribution (Vd) and the clearance (CL) were calculated using WinNonlin Ver.

[14] = Blood biochemical indexes of liver and kidney function in tumor-bearing nude mice; conditions: serum at end of 4 weeks of administration, n = 6
Procedure: The blood was collected and centrifuged at the end of administration for 4 weeks. The serum was placed into eppendorf (EP) tube and immediately sent to the First Affiliated Hospital of Jinan University where several tests closely related to liver/kidney function were performed, and the blood biochemical indexes AST, ALT, AST/ALT, ALB, GLB, ALB/GLB, DBILI, IBILI, TBILI, BUN and CREA were obtained.

[15] = BALB/c, mouse, plasma, iv, 5 mg/kg

SMILES: CC[C@H](C)[C@H](NC(=O)[C@H](CCCNC(=N)N)NC(=O)[C@H](CO)NC(=O)[C@@H](NC(=O)[C@@H](NC(=O)[C@H](Cc1c[nH]cn1)NC(=O)[C@@H](NC(=O)[C@H](CC(C)C)NC(=O)[C@H](CC(C)C)NC(=O)[C@H](CCCNC(=N)N)NC(=O)CNC(=O)[C@H](CCC(=O)O)NC(=O)[C@@H](NC(=O)[C@H](Cc1c[nH]c2ccccc12)NC(=O)[C@H](CO)NC(=O)[C@H](CO)NC(=O)[C@@H]1CCCN1C(=O)[C@H](CCCNC(=N)N)NC(=O)[C@H](CCC(N)=O)NC(=O)[C@H](Cc1c[nH]c2ccccc12)NC(=O)[C@@H](N)CCSC)[C@@H](C)CC)[C@@H](C)O)[C@@H](C)O)[C@@H](C)CC)C(=O)N[C@@H](C)C(=O)N[C@H](C(=O)N[C@@H](CO)C(=O)N[C@@H](Cc1ccc(O)cc1)C(=O)N[C@@H](CCC(N)=O)C(=O)N[C@H](C(=O)N[C@@H](CCCCN)C(=O)N[C@H](C(=O)N[C@@H](CC(N)=O)C(=O)N[C@@H](CC(C)C)C(=O)N[C@@H](CC(C)C)C(=O)O)C(C)C)[C@@H](C)O)C(C)C [RMP16]
- binding affinity for hTNFRI higher than that for hTNFRII [1]: ~410 times
- bound less strongly to hTNFRI than did TNF α [1]: ~4.5 times
- bound less strongly to hTNFRII than did TNF α [2]: ~6600 times
- factor Xa enzyme digestion half-life in the presence of HSA ([3]; 10 μM peptide in PBS with 2 μM HSA): 15.83 h
- half-life at 10 μM ([3]; factor Xa (FXa) enzyme digestion in PBS without HSA, 10 μM peptide in PBS without HSA, read-out: factor Xa enzyme digestion half-life in the absence of HSA (converted)): 9.72 h
- effect on proliferation of HUVEC [4]: significantly inhibited the proliferation
- effect on proliferation of MCF10A cells [5]: not significant effect
- IC50 of displacing [125I]TNF α from TNFRI as multiple of that from TNFRII [6]: 1/400
- increase of apoptosis rate for Du145 cells ([7]; 20 nM, 48 h, Annexin V-FITC/PI flow cytometry, versus PBS): 14.21%
- cell pro-apoptotic effect after TNFRI blocking ([7]; Du145 cells pre-incubated with 100 nM H398 (TNFRI-selective inhibitor) for 30 minutes at 37 °C before 20 nM RMP16): disappeared
- increase of Du145 cells remaining in G0/G1 phase [8]: 13.1%
- reduction of Du145 cells remaining in S phase and G2/M phase [8]: 12.9%
- tumor inhibition rate [9]: ~80% and 78.11%
- microvessel density (MVD) [10]: 6.4 ± 0.62
- percent of the tumor cells with typical apoptosis characteristic [11]: about 79.6%
- vessel branch points, dose of 2 μg ([12]; 2 μg on filter membrane, n = 6): 28.02 ± 1.37
- inhibition rate of angiogenesis, 2 μg ([12]; 2 μg on filter membrane, versus NaCl group): 54.13 ± 5.13%
- vessel branch points, dose of 4 μg ([12]; 4 μg on filter membrane, n = 6): 12.31 ± 2.95
- inhibition rate of angiogenesis, 4 μg ([12]; 4 μg on filter membrane, versus NaCl group): 79.94 ± 4.64%
- AUC [13, 15]: 1360 µg·h/mL
- Vd [13, 15]: 0.0695 L/kg
- clearance [13, 15]: 3.68 mL/h/kg
- half-life [13, 15]: 13.1 h
- half-life in mice ([13]; in mice, as stated in abstract): 13.11 h
- ALB [14]: 17.2 ± 0.2 g/L
- ALT [14]: 100.5 ± 20.5 U/L
- AST [14]: 154 ± 28 U/L
- CREA [14]: 10.5 ± 0.5 µM
- DBILI [14]: 3 ± 0.7 µM
- GLB [14]: 41.7 ± 1 g/L
- IBILI [14]: 9.25 ± 0.55 µM
- TBILI [14]: 12.25 ± 0.15 µM
